The data set in a line: method code SF-HPLC, from DOI: 10.1248/cpb.46.274.
On to `CC(=O)/C=C/c1ccc(C(F)(F)F)cc1`, for which the logP turned out to be 3.13.
The same measure for `CC(=O)/C=C/c1ccccc1F`: 2.34.
For the molecule `CC(=O)C=Cc1ccc(Br)cc1`, the logP was 3.03.
The figure for `COc1ccc(/C=C/C(C)=O)cc1` is 2.25.
The same measure for `O=C(C=Cc1ccccc1Cl)C(F)(F)F`: 3.5.
The figure for `CC(=O)/C=C/c1ccc(O)cc1` is 1.86; for `N#Cc1ccc(C=CC(=O)C(F)(F)F)cc1` it is 2.42; for `CC(=O)C=Cc1ccc(C#N)cc1` it is 1.64.
Consider `COc1ccc(C=CC(=O)C(F)(F)F)cc1`, for which the logP came out at 3.33.
The same measure for `CC(=O)C=Cc1cccc(F)c1`: 2.25.
The same measure for `CC(=O)C=Cc1ccc(OC(C)=O)cc1`: 1.63; for `CC(=O)/C=C/c1ccccc1C`: 2.6.
The figure for `CC(=O)/C=C/c1ccc(Cl)cc1` is 2.8; for `CC(=O)/C=C/c1cccc(Cl)c1` it is 2.81; for `CC(=O)C=Cc1cccc(C#N)c1` it is 1.59.
In the case of `N#Cc1cccc(/C=C/C(=O)C(F)(F)F)c1`, the logP came to 2.45.
As for `CC(=O)/C=C/c1ccccc1C(F)(F)F`, the log partition coefficient (logP) was determined as 3.14.
As for `CCc1ccc(/C=C/C(C)=O)cc1`, the logP is 3.26.
The same measure for `O=C(C=Cc1ccc(Cl)cc1)C(F)(F)F`: 3.63.
`COc1cccc(/C=C/C(C)=O)c1` displayed a logP of 2.27.
The same measure for `CC(=O)/C=C/c1ccccc1O`: 2.19; for `COc1ccccc1C=CC(=O)C(F)(F)F`: 3.39.
As to `CC(=O)/C=C/c1ccccc1Cl`, the logP worked out at 2.85.
In turn, `O=C(C=Cc1cccc(Cl)c1)C(F)(F)F` displayed a lipophilicity (logP) of 3.58.
For `CC(=O)C=Cc1ccc(C)cc1`, the logP worked out at 2.65.
The figure for `CC(=O)/C=C/c1cccc(Br)c1` is 3.02; for `CCOc1ccc(C=CC(C)=O)cc1` it is 2.73.
As to `CC(=O)/C=C/c1cccc([N+](=O)[O-])c1`, the logP is 1.88.
The figure for `O=C(C=Cc1ccccc1)C(F)(F)F` is 3.01; for `CC(=O)C=Cc1ccc(F)cc1` it is 2.22; for `CC(=O)/C=C/c1cccc(C(F)(F)F)c1` it is 3.03.
The same measure for `COc1ccccc1/C=C/C(C)=O`: 2.42; for `CC(=O)/C=C/c1cccc(C)c1`: 2.68.
The same measure for `CC(=O)/C=C/c1ccc(N(C)C)cc1`: 2.66; for `O=C(C=Cc1cccc([N+](=O)[O-])c1)C(F)(F)F`: 2.66.
For `COc1cccc(C=CC(=O)C(F)(F)F)c1`, the logP was 3.05.

Source of the values: the SangsterLogP compilation.
